Data from US20260132129A1 (Genesis Therapeutics, Inc., priority 2022, published 2026).

Molecular target: T1, PI3Kα H1047R (T47D cells) (Homo sapiens, UniProt P42336, H1047R)
T1 construct: endogenous in cells; host or cells: T47D cells
Assay: PI3Kα cellular assay: pAKT HTRF in T47D cells after EGF stimulation
Assay type: cell-based
Conditions: for IC50: T47D cells (PI3Kα H1047R), pAKT S473 HTRF, EGF stimulation
How it was run: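 pAKT read by HTRF in lysates of EGF-stimulated (20 ng/mL, 10 min) T47D H1047R cells. Before stimulation, serum-starved cells (16 h) received compound for 1 h at 37 °C, dosed from 10,000 nM down to 0.5 nM in 3-fold steps.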

T1 sequence (P42336 whole entry H1047R): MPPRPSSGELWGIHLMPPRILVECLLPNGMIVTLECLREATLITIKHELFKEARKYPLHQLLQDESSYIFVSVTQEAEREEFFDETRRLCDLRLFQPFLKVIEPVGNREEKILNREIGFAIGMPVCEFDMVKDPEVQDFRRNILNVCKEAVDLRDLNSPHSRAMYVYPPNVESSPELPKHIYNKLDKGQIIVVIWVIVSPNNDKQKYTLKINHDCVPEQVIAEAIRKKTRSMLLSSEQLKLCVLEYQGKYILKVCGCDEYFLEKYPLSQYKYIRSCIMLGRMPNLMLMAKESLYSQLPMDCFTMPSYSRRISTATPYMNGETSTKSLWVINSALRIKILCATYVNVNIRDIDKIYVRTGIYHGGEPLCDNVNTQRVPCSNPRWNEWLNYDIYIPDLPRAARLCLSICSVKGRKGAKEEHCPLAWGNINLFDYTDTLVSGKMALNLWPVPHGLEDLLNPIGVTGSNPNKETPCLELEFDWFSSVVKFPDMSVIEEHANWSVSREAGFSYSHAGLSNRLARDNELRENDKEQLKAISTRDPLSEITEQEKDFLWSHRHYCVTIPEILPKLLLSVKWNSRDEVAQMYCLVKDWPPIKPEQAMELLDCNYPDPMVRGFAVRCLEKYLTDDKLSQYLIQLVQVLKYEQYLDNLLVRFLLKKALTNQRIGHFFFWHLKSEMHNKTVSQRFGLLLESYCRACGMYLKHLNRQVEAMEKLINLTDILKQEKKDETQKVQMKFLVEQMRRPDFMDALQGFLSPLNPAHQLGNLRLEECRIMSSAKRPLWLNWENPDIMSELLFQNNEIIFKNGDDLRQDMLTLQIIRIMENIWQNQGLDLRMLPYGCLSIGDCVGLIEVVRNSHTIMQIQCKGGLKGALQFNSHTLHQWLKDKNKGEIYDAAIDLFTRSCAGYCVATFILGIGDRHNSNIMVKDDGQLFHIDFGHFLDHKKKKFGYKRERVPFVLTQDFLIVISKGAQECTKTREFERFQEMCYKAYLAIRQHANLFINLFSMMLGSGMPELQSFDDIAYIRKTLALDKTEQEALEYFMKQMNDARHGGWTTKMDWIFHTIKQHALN
T1 sequence (P27986 whole entry partner): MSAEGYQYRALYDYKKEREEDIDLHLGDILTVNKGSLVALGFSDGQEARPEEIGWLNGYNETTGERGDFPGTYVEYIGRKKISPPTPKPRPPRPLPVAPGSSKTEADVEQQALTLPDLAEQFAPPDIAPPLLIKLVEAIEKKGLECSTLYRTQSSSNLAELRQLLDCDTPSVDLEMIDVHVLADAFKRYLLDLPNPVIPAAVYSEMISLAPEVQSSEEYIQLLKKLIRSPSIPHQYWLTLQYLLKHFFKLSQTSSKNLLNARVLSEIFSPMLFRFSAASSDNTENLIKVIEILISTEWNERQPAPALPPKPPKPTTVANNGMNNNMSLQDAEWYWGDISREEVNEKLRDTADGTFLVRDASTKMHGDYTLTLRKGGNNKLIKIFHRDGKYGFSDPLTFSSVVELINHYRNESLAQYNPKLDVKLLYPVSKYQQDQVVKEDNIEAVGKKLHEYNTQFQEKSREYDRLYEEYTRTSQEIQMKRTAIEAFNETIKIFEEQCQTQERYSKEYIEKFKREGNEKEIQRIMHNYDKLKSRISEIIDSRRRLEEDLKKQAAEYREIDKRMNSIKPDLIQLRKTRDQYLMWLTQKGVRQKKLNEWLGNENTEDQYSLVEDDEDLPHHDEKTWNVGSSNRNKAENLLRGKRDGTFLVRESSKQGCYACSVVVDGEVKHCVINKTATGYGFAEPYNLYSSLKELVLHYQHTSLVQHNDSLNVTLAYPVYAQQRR

IC50 [nM] | T47D pAKT S473 HTRF IC50 (H1047R): T47D (H1047R) selectivity over SKBR3 (WT) | SMILES
> 2000 | C (C denotes ≤5-fold) | Cc1cc([C@H](C)Nc2ccccc2C(=O)O)c2nc(-c3ccnc(C)c3)c(C)c(=O)n2c1 [Compound 1068]
< 100 | A (A denotes >20-fold) | COc1ccc(-c2nc3c([C@@H](C)Nc4ccccc4C(=O)O)cc(C)cn3c(=O)c2C)cc1 [Compound 1070]
> 2000 | C (C denotes ≤5-fold) | COc1ccc(-c2nc3c([C@H](C)Nc4ccccc4C(=O)O)cc(C)cn3c(=O)c2C)cc1 [Compound 1071]
> 2000 | C (C denotes ≤5-fold) | Cc1cc([C@@H](C)Nc2ccccc2C(=O)O)c2nc(-c3cccc(F)c3)c(C)c(=O)n2c1 [Compound 1073]
> 2000 | C (C denotes ≤5-fold) | Cc1cc(C(C)Nc2ccccc2)c2nc(-c3ccc(F)cc3)c(C)c(=O)n2c1 (stereo not drawn) [Compound 1086]
> 2000 | C (C denotes ≤5-fold) | Cc1cc([C@@H](C)Nc2ccccc2C(N)=O)c2nc(-c3ccnc(C4CC4)c3)c(C)c(=O)n2c1 [Compound 1089]
< 100 | A (A denotes >20-fold) | Cc1cc(C(C)Nc2ccccc2C(N)=O)c2nc(-c3ccnc(C4CC4)c3)c(C)c(=O)n2c1 (stereo not drawn) [Compound 1090]
100 to 500 | A (A denotes >20-fold) | Cc1cc(C(C)Nc2ccccc2C(N)=O)c2nc(-c3ccc(F)c(C#N)c3)c(C)c(=O)n2c1 (stereo not drawn) [Compound 1092]
100 to 500 | A (A denotes >20-fold) | Cc1cc(C(C)Nc2ccccc2C(N)=O)c2nc(-c3cnc(C)c(Cl)c3)c(C)c(=O)n2c1 (stereo not drawn) [Compound 1094]
> 2000 | C (C denotes ≤5-fold) | Cc1cc([C@@H](C)Nc2ccccc2S(N)(=O)=O)c2nc(-c3ccnc(C4CC4)c3)c(C)c(=O)n2c1 [Compound 1095]
< 100 | A (A denotes >20-fold) | Cc1cc([C@@H](C)Nc2ccccc2S(N)(=O)=O)c2nc(-c3cccc(C(F)F)c3)c(C)c(=O)n2c1 [Compound 1097]
> 2000 | C (C denotes ≤5-fold) | Cc1cc([C@H](C)Nc2ccccc2S(N)(=O)=O)c2nc(-c3cccc(C(F)F)c3)c(C)c(=O)n2c1 [Compound 1098]
< 100 | A (A denotes >20-fold) | Cc1cc(C(C)Nc2ccccc2C(=O)O)c2nc(-c3cc(C)nc(Cl)c3)c(C)c(=O)n2c1 (stereo not drawn) [Compound 1099]
< 100 | A (A denotes >20-fold) | COc1cc(-c2nc3c([C@@H](C)Nc4ccccc4C(=O)O)cc(C)cn3c(=O)c2C)ccn1 [Compound 1101]
< 100 | A (A denotes >20-fold) | Cc1cc([C@@H](C)Nc2ccccc2S(N)(=O)=O)c2nc(-c3cccnc3)c(C)c(=O)n2c1 [Compound 1107]
500 to 2000 | B (B denotes 20-fold≥value>5-fold) | Cc1cc([C@H](C)Nc2ccccc2S(N)(=O)=O)c2nc(-c3cccnc3)c(C)c(=O)n2c1 [Compound 1108]
 | B (B denotes 20-fold≥value>5-fold) | Cc1cc(C(C)Nc2ccccc2C#N)c2nc(-c3ccccc3)c(C)c(=O)n2c1 (stereo not drawn) [Compound 1117]
> 2000 | C (C denotes ≤5-fold) | Cc1cc([C@@H](C)Nc2ccccc2)c2nc(-c3ccc(F)cc3)c(C)c(=O)n2c1 [Compound 1123]

The remaining lines, values behind:

SMILES | IC50 [nM] | T47D pAKT S473 HTRF IC50 (H1047R): T47D (H1047R) selectivity over SKBR3 (WT)
Cc1cc([C@@H](C)Nc2ccccc2C(=O)O)c2nc(-c3ccc(Cl)cc3F)c(C)c(=O)n2c1 [Compound 1069] | < 100 | A (A denotes >20-fold)
Cc1cc([C@H](C)Nc2ccccc2C(=O)O)c2nc(-c3ccc(CC4CCN(C(=O)C5CC5)CC4)c(F)c3)c(C)c(=O)n2c1 [Compound 1075] | > 2000 | C (C denotes ≤5-fold)
Cc1cc([C@@H](C)Nc2ccccc2C(=O)O)c2nc(-c3cccc(C(F)F)c3)c(C)c(=O)n2c1 [Compound 1077] | 500 to 2000 | B (B denotes 20-fold≥value>5-fold)
Cc1cc([C@H](C)Nc2ccccc2C(=O)O)c2nc(-c3ccc4c(c3)c(C#N)nn4C)c(C)c(=O)n2c1 [Compound 1082] | 500 to 2000 | B (B denotes 20-fold≥value>5-fold)
Cc1cc([C@H](C)Nc2ccccc2C(=O)O)c2nc(-c3cnc(C#N)c(Cl)c3)c(C)c(=O)n2c1 [Compound 1084] | > 2000 | C (C denotes ≤5-fold)
Cc1cc(C(C)Nc2ccccc2)c2nc(N3Cc4ccccc4C3)c(C)c(=O)n2c1 (stereo not drawn) [Compound 1085] | > 2000 | C (C denotes ≤5-fold)
Cc1cc(C(C)Nc2ccccc2S(N)(=O)=O)c2nc(-c3ccnc(C4CC4)c3)c(C)c(=O)n2c1 (stereo not drawn) [Compound 1096] | < 100 | A (A denotes >20-fold)
Cc1cc(C(C)Nc2ccccc2C(=O)O)c2nc(-c3cc(F)cc(C#N)c3)c(C)c(=O)n2c1 (stereo not drawn) [Compound 1103] | < 100 | A (A denotes >20-fold)
Cc1cc([C@@H](C)Nc2ccccc2C(=O)O)c2nc(-c3ccc(C4CC4)nc3)cc(=O)n2c1 [Compound 1111] | < 100 | A (A denotes >20-fold)
Cc1cc([C@H](C)Nc2ccccc2C(=O)O)c2nc(C3C=NC(C4CC4)=CC3)cc(=O)n2c1 (stereo partly drawn) [Compound 1112] |  | B (B denotes 20-fold≥value>5-fold)
Cc1cc([C@@H](C)Nc2ccccc2C(=O)O)c2nc(-c3cccc(C(F)F)c3)cc(=O)n2c1 [Compound 1113] | > 2000 | C (C denotes ≤5-fold)
Cc1cc([C@H](C)Nc2ccccc2C(=O)O)c2nc(-c3cccc(C(F)F)c3)cc(=O)n2c1 [Compound 1114] | < 100 | A (A denotes >20-fold)
CCc1c(-c2ccc(F)cc2)nc2c([C@@H](C)Nc3ccccc3C(=O)O)cc(C)cn2c1=O [Compound 1115] | < 100 | A (A denotes >20-fold)
CCc1c(-c2ccc(F)cc2)nc2c([C@H](C)Nc3ccccc3C(=O)O)cc(C)cn2c1=O [Compound 1116] | 500 to 2000 | B (B denotes 20-fold≥value>5-fold)
C=CC(=O)Nc1ccc(C(=O)O)c(N[C@H](C)c2cc(C)cn3c(=O)c(C)c(N4Cc5ccccc5C4)nc23)c1 [Compound 1121] | > 2000 | C (C denotes ≤5-fold)
C=CC(=O)Nc1ccc(C(=O)O)c(N[C@@H](C)c2cc(C)cn3c(=O)c(C)c(N4Cc5ccccc5C4)nc23)c1 [Compound 1122] | > 2000 | C (C denotes ≤5-fold)
